Marks after values point to notes of the source that are not given here.
Experiments:
Mx protein coding gene = assay: PACAP38 effect on transcription of Mx protein coding gene in leukocytes (qPCR); type: cell-based, rainbow trout (Oncorhynchus mykiss); settings: 48 hours
Excerpt: (§1) Juvenile rainbow trout (O. mykiss) was used of approximately 50 grams, VHSV and IPNV free. Fish (n=5) were anesthetized with methanesulfonic acid salt (Sigma, USA) and were removed aseptically, first peripheral blood from the tail vein and then the anterior kidney were isolated from peripheral blood leukocytes from anterior kidney and trout from 5 independently, following the method described by Graham and Secombe (Graham and Secombe ([…]) Immunology 65:293-7).
(§2) The peripheral blood of each fish was diluted 4 times in half Leibovitz (L-15, Gibco, UK) supplemented with penicillin 100 IU/mL, streptomycin (100 μg/mL), heparin (10 units/mL) and 2% FCS and placed carefully on a Percoll gradient to 51%. The ring of cells corresponding to leukocytes was removed carefully, washed twice in L-15 containing 0.1% FCS.
(§3) The anterior kidney was passed through a nylon mesh of 100 μm Leibovitz (L-15, Gibco, UK) supplemented with penicillin 100 IU/mL, streptomycin (100 μg/mL), heparin (10 units/mL) and 2% FCS. The resulting cell suspension was diluted 1:4 in the same medium supplemented L-15 and placed carefully on a Percoll gradient to 51%. The ring of cells corresponding to leukocytes was removed carefully, washed twice in L-15 containing 0.1% FCS.
(§4) The cells were suspended in L-15 with 5% FCS at a concentration of 5×10^6 cells per ml and dispensed in 24-well plates at 1 mL per well. The leukocytes were treated with 3 doses of PACAP38 from Clarias gariepinus obtained by chemical synthesis (10^−10 M, 10^−9 M and 10^−8 M) in duplicate and used as negative control untreated leukocytes dispensed in duplicate.
(§5) The levels of Mx, IFN and TLR9 were evaluated 48 hours after treatment. In order to do so, total RNA was purified from leukocyte cultures treated with PACAP by the method described by Chomczynski and Sacchi (Chomczynski and Sacchi (1987) Anal. Biochem. 162:156-9).
(§6) For the synthesis of cDNA it was used a commercial reagent kit uses SuperScript III reverse transcriptase (Invitrogen). Finally, for quantitative PCR reactions (qPCR) was used a mixture of PCR from commercial sources: Power SYBR Green PCR Master Mix (Applied Biosystems). The qPCR results were normalized against a constitutive endogenous constitutive expression gene specifically elongation 1α (EF 1α) and were performed in triplicate. The results were expressed as 2^−ΔCt, where ΔCt is equal to the remainder of the gene Ct value minus the assessed value of Ct normalizer gene EF 1α).

TLR9 coding gene = assay: PACAP38 effect on transcription of TLR9 coding gene in leukocytes (qPCR); type: cell-based, rainbow trout (Oncorhynchus mykiss); settings: 48 hours
Excerpt: as §1, §2, §3, §4
The levels of Mx, IFN and TLR9 were evaluated 48 hours after treatment. […]
as §6, with “The qPCR results were normalized against a constitutive endogenous constitutive expression gene specifically elongation 1α (EF 1α) and were performed in triplicate.” left out

IFN γ coding gene = assay: PACAP38 effect on transcription of IFN γ coding gene in leukocytes (qPCR); type: cell-based, rainbow trout (Oncorhynchus mykiss); settings: 48 hours
Excerpt: as §1, §2, §3, §4, §5, §6

[1] = tested on: IPNV (strain ATCC VR-299); assay: Atlantic salmon experimentally infected with IPNV, treatment by immersion; type: in vivo, Atlantic salmon (Salmo salar); settings: for Increment / Final Weight: 45 days post-infection; for Final Weight: initial 1.2 ± 0.3 g; for survival: 45 days, untreated infected 30%
Protocol: An experiment was conducted to evaluate the effect of the administration of PACAP and PACAP-ribavirin combination for salmon (Salmo salar) experimentally infected with IPNV. Eight experimental groups were performed of 50 fish and a size of 1.2±0.3 g each one and were kept in water at 10-12° C.: • Group 1: untreated fish not exposed to the virus • Group 2: untreated fish, exposed to the virus • Group 3: Group treated with ribavirin at a dose of 400 μg/L of water, exposed to the virus • Group 4: Group treated with ribavirin at a dose of 800 μg/L of water, exposed to the virus • Group 5: Group treated with PACAP at a dose of 100 μg/L of water, exposed to the virus • Group 6: Group treated with PACAP at a dose of 200 μg/L, exposed to the virus • Group 7: Group treated with ribavirin 400 μg/L-PACAP 100 μg/L combination, exposed to the virus • Group 8: Group treated with ribavirin 800 μg/L-PACAP 200 μg/L combination, exposed to the virus.
The animals were fed twice a day with an amount equivalent to 3% of the total corporal weight in each tank. […] Treatments were performed 3 times a week for 20 days. Experimental observations were made during this period and 25 days after the last treatments. During the 45 days of the experiment deaths and abnormal behavior of the fish were monitored. Fish in Groups 1 and 2 were subjected to the same stress produced by the treatment without the antiviral compound or the combination of PACAP-antiviral. The fish in Group 1 received the same procedure with cell culture medium instead of the virus.

IPNV [2] = assay: Oysters experimentally infected with IPNV, viral titer in hepatopancreas; type: in vivo, oysters of the species Pecten maximus; settings: two weeks after challenge, untreated infected 8.1
Protocol: Eight experimental groups were performed of 30 adult oysters each one and were kept in 250 L of filtered sea water at 10° C.
Treatments were performed 3 times a week for 20 days. Oysters were challenged by exposure to 25 L of water containing 10^7 TCID50 mL^−1 in tanks of 80 L. After 6 h the water was replaced at a slow flow of 1 L/min and at 12 h the flow was increased to 3 L/min.
Two weeks after challenge hepatopancreas samples were taken and determined the viral titer.

[3] = tested on: IPNV (strain ATCC VR-299); assay: Rainbow trout experimentally infected with IPNV, treatment by immersion; type: in vivo, rainbow trout (O. mykiss); settings: for Increment with respect to initial weight / Final Weight: 45 days post-infection; for Final Weight: initial 1.6 ± 0.4 g; for survival: 45 days, untreated infected 20%
Protocol: An experiment was conducted to evaluate the effect of administration of PACAP and PACAP-ribavirin combination in rainbow trout experimentally infected with IPNV. Eight experimental groups of 50 fish each at a body weight of 1.6±0.4 g were used. The water temperature was kept at 10-12° C. • Group 1: untreated fish not exposed to the virus • Group 2: untreated fish, exposed to the virus • Group 3: Group treated with ribavirin at a dose of 400 μg/L of water, exposed to the virus • Group 4: Group treated with ribavirin at a dose of 800 μg/L of water, exposed to the virus • Group 5: Group treated with PACAP at a dose of 100 μg/L of water, exposed to the virus • Group 6: Group treated with PACAP at a dose of 200 μg/L of water, exposed to the virus. • Group 7: Group treated with the combination 1 (ribavirina 400 μg/L-PACAP 100 μg/L, exposed to the virus.
Group 8: Group treated with the combination 2 (ribavirina 800 μg/L-PACAP 200 μg/L exposed to the virus.
The animals were fed twice a day with an amount equivalent to 3% of the total corporal weight in each tank. […] Fish in Groups 1 and 2 were subjected to the same stress treatment without the antiviral compound or without the PACAP-antiviral combination. The fish in Group 1 received the same procedure with cell culture medium instead of virus. […] Treatments with PACAP or with PACAP-antiviral combination were performed 3 times a week for 20 days. The first treatments were performed 2 h after viral infection. Experimental observations were made during the first 20 days of treatments and 25 days after it concluded. During the experiment (45 days) deaths and abnormal behavior of the fish were monitored.

IPNV [4] = settings: daily baths 0.4 and 0.8 μg/mL for two hours during 20 days; cited from earlier work
IHNV = assay: Rainbow trout experimentally infected with IHNV; type: in vivo, rainbow trout (O. mykiss); settings: amantadine 400/800 μg/L, PACAP 100/200 μg/L or combinations, doses not told apart; untreated infected 26%
Protocol: The fish were challenged by immersion with 5.9×10^3 pfu/ml virus in 20 L of water with aeration for 1 hour.

PAC-1 receptor = PAC-1 receptor expression (qPCR) in head kidney leukocytes treated with poly I:C; type: cell-based, rainbow trout (O. mykiss); settings: poly I:C 30 μg/mL, 4, 24 and 48 hours
Protocol: Juvenile rainbow trout (O. mykiss) was used from 9 to 12 grams and 7 months of age, VHSV and IPNV free. Fish were maintained at 14° C. with water circulation. Food was administered twice a day ad libitum. The virus, VHSV (strain 0771) and IPNV (strain Sp) were propagated in the rainbow trout gonad cell line RTG-2 (Sena and Rio (1975) Infect Immun 11:815-22). Cells were grown in minimal essential medium (MEM, Invitrogen, USA) supplemented with 10% of fetal calf serum (FCS, Invitrogen) containing 100 IU/mL of penicillin and 100 μg/mL of streptomycin. The viruses were inoculated into RTG-2 cells grown in MEM with antibiotics and 2% FCS at 14° C. […] The viral titers were determined in 96-well plates as reported by Reed and Muench (Reed and Muench ([…]) J Hyg 27:280-9). […]
Finally, total RNA was purified from leukocytes cultures using the method described by Chomczynski and Sacchi (Chomczynski and Sacchi (1987) Anal. Biochem. 162:156-9) to evaluate the expression levels of the PAC-1 receptor on leukocytes untreated and treated with Poly I:C or infected with viruses. […] For quantitative PCR reactions (qPCR) was used a mixture of PCR from commercial sources: Power SYBR Green PCR Master Mix (Applied Biosystems). […] The results were expressed as 2^−ΔCt, where ΔCt is equal to the remainder of the gene Ct value minus the assessed value of Ct normalizer gene (EF 1α).

VPAC-1 receptor = VPAC-1 receptor expression (qPCR) in anterior kidney leukocytes treated with poly I:C; type: cell-based, rainbow trout (Oncorhynchus mykiss); settings: cultured leukocytes, poly I:C, 4, 24 and 48 hours
[5] = head kidney leukocytes, 10^−9 M
[6] = Groups 3, 5, 7: ribavirin 400 μg/L, PACAP 100 μg/L or both
[7] = Groups 4, 6, 8: ribavirin 800 μg/L, PACAP 200 μg/L or both
[8] = Groups 3, 5, 7: ribavirin 400 μg/L, PACAP 100 μg/L or combination 1
[9] = Groups 4, 6, 8: ribavirin 800 μg/L, PACAP 200 μg/L or combination 2

PACAP38
Mx protein expression levels relative to negative control (Mx protein coding gene; [5]): stimulatory effect | Mx protein expression levels relative to negative control (Mx protein coding gene; peripheral blood leukocytes, 10^−8 M): did not differ | Mx protein expression levels relative to negative control (Mx protein coding gene; peripheral blood leukocytes, 10^−9 M, below levels at 10^−10 M): stimulatory effect | Mx protein expression levels relative to negative control (Mx protein coding gene; peripheral blood leukocytes, 10^−10 M): increase | TLR9 expression levels versus negative control (TLR9 coding gene; [5]): statistically higher than the negative control | TLR9 expression levels (TLR9 coding gene; peripheral blood leukocytes, 10^−10-10^−8 M, undetectable in unstimulated cultures): detectable levels | dose giving the highest TLR9 expression values (TLR9 coding gene; peripheral blood leukocytes): 10^−10 M | IFN γ expression levels versus control group (IFN γ coding gene; anterior kidney leukocytes, 10^−9 and 10^−8 M): statistically higher than the control group | dose giving the best IFN γ expression results (IFN γ coding gene; anterior kidney leukocytes): 10^−9 M | IFN γ expression levels (IFN γ coding gene; peripheral blood leukocytes, 3 doses (10^−10, 10^−9, 10^−8 M), undetectable in non-treated cultures): detectable levels of expression | dose giving the highest IFN γ expression level (IFN γ coding gene; peripheral blood leukocytes): 10^−9 M

NC(=O)c1ncn([C@@H]2O[C@H](CO)[C@@H](O)[C@H]2O)n1 [ribavirin]
day on which early signs of disease were detected ([1]; Atlantic salmon, IPNV, both doses, untreated infected: day 6): 10 days | Increment [1, 6]: 83% | Final Weight [1, 6]: 2.2 ± 0.4^c g | Increment [1, 7]: 92% | Final Weight [1, 7]: 2.3 ± 0.5^c g | survival ([1]; high dose: ribavirin 800 μg/L or PACAP 200 μg/L): 76% | survival ([1]; low dose: ribavirin 400 μg/L or PACAP 100 μg/L): 70% | IPNV average viral titer in the hepatopancreas (IPNV [2]; [8]): 5.4^b log10TCID50 g^−1 | IPNV average viral titer in the hepatopancreas (IPNV [2]; [9]): 4.3^b log10TCID50 g^−1 | Increment with respect to initial weight [3, 8]: 137% | Final Weight [3, 8]: 3.8 ± 1.1^c g | survival [3, 8]: 68% | Increment with respect to initial weight [3, 9]: 131% | Final Weight [3, 9]: 3.7 ± 1.0^c g | survival [3, 9]: 70% | day on which appetite was recovered ([3]; rainbow trout, IPNV, both doses, untreated infected: day 15): 13 days | day on which signs of disease were detected ([3]; rainbow trout, IPNV, treatments 3 times a week for 20 days, both doses, untreated infected: day 6): 8 days

C#Cc1c(C(N)=O)ncn1[C@@H]1O[C@H](CO)[C@@H](O)[C@H]1O [EICAR, 5-ethynyl-1-β-D-ribofuranosylimidazole-carboxamide]
viral load in liver and spleen (RT-PCR) (IPNV [4]): decrease in viral load

NC12CC3CC(CC(C3)C1)C2 [amantadine]
survival (IHNV): 46%

poly I:C
levels of PAC-1 expression relative to EF1α (PAC-1 receptor): over-expressed | levels of VPAC-1 expression relative to EF1α (VPAC-1 receptor): over-expressed

From patent US9603900B2, “Use of PACAP for the treatment of viral infections in aquatic organisms” (Centro de Ingenieria Genetica y Biotecnologia, priority 2010, dated 2017)
